PMC9499506, “TNF-α and IL-1β Modulate Blood-Brain Barrier Permeability and Decrease Amyloid-β Peptide Efflux in a Human Blood-Brain Barrier Model” (International Journal of Molecular Sciences, 2022)

Legend:
Format in all cases: cell-based, human
[1] = test system: BLECs; assay: Western immunoblotting of junctional proteins in BLECs; settings: 10 ng·mL^−1, 24 h
Method: (§1) Each condition was studied in triplicate.
(§2) After 24 h of treatments with or without proinflammatory cytokines, BLECs were washed twice with cold RH buffer and scraped with 70 μL of RIPA 1X lysis buffer (10 mM Tris-Cl (pH 8.0), 1 mM EDTA, 0.5 mM EGTA, 1% Triton X-100, 0.1% sodium deoxycholate, 0.1% SDS, 140 mM NaCl) (Merck Millipore, Burlington, MA, USA) or UT4 lysis buffer (7M Urea, 2M Thiourea, 4% CHAPS), both supplemented with a cocktail of phosphatase and protease inhibitors (1% protease inhibitors cocktail #P8340; 1% phosphatase inhibitors cocktail 1 P2850; 1% phosphatase inhibitors cocktail 2 #P5726; 1% protease inhibitors cocktail #P8340) purchased from Sigma-Aldrich (Lyon, France). Then, a centrifugation at 10,000 rpm for 10 min at 4 °C was achieved to save the supernatant of the lysate. This was later sonicated two times for 5 s on ice. The concentration of the protein lysate was quantified using the Bradford method (#5000006; rad, Munich, Germany). The protein samples were then stored at −20 °C.
(§3) 20 μg of total protein was mixed with Laemmli 4X (#1610747; Biorad, Munich, Germany) supplemented with β-mercaptoethanol (Sigma-Aldrich, Germany). Depending on the protein target, details of the denaturation and reduction steps of the protein extract are described in Table 3. Then, the protein mixes were electrophoresed using Criterion™ TGX™ (Tris-Glycine eXtended) precast gels (Biorad, Munich, Germany) and subsequently electrotransferred to nitro-cellulose membranes (GE Healthcare, Munich, Germany). Once the previous step was completed, Tris-buffered saline 0.1% Tween 20 (TBST; 20 mM Tris-HCl, pH 8.0, 500 mM NaCl, 0.1% Tween 20) supplemented with 5% skimmed milk was added on membrane to block nonspecific binding sites for 1 h under agitation at RT. Membranes were incubated in the appropriate primary antibodies (as described in Table 3) and incubated at 4 °C overnight, except β-actin (20 min at RT).
(§4) The following morning, the membranes were rinsed with TBST three times for 5 min each under agitation, and then incubated with the horseradish peroxidase-conjugated secondary antibody anti-rabbit (1:8000, Dako/Agilent Technologies, Inc., Santa Clara, CA, USA) or secondary antibody anti-mouse (1:5000, Dako/Agilent Technologies, Inc., Santa Clara, CA, USA) for 1 h at RT. […] Quantification of the relative densities of bands was performed with TotalLab TL 100 1D Gel Analysis software (Nonlinear Dynamics, Newcastle, UK). The protein expression normalization was conducted with anti-β-actin. Studies were performed with at least three independent experiments, with at least two Western immunoblottings per experiment.

[2] = test system: BLECs; assay: Western immunoblotting of receptors/transporters involved in Aβ peptide transport in BLECs; settings: 10 ng·mL^−1, 24 h; for downregulation of BCRP protein level compared to control / downregulation of LRP1 protein level compared to control: normalized to β-actin
Method: as §1, §2, §3, §4

[3] = test system: BLECs; assay: Effect of cytokines on Aβ1–40Cy5 transcytosis quotient across BLECs; settings: cytokine 10 ng·mL^−1 basolateral, 24 h; then 30 min transport at 37 °C; compared to control
Method: As TNF-α and IL-1β modulated the protein expression levels of LRP1, BCRP and PICALM (Figure 4), we investigated the effect of these cytokines on the transport of Aβ peptide across the BBB. After 24 h of treatment with proinflammatory cytokines, the apical-to-basolateral (influx) and basolateral-to-apical (efflux) Aβ1–40Cy5 peptide transports across the BLECs were assessed in the presence of FITC-inulin. The Aβ1–40 peptide was used in all experiments, as it is the most abundant amyloid peptide found on cerebral blood vessels. FITC-inulin was used to determine the nonspecific transcytosis quotient (Figure 5A). Indeed, unlike Aβ peptide, FITC-inulin is not actively cleared at the BBB and acts as a reference marker of paracellular permeability, thus as previously reported.
as §1
After proinflammatory cytokine treatments, the influx (apical-to-basolateral) and the efflux (basolateral-to-apical) transport of Aβ1–40 peptides across BLECs were investigated as previously described. Briefly, for influx studies, inserts with BLECs were transferred to new 12-well plates containing 1.5 mL of RH–HSA 0.1% (the receiver solution) per well. In the insert, 0.5 mL of RH-HSA 0.1% supplemented with 10 nM Aβ1–40Cy5 peptide were added (the donor solution). For efflux studies, inserts with BLECs were transferred to new 12-well plates, this time containing 1.5 mL of RH-has 0.1% with 10 nM fluorescent Aβ1–40Cy5 (the donor solution) peptide, then 0.5 mL of RH-HSA 0.1% (the receiver solution) was added in the insert. […] The BBB integrity was determined by measuring the endothelial permeability of a radioactive integrity marker, ^14C-sucrose, using the same method of calculation as described in Section 4.4. […] At the end of the experiment, aliquots of the receiver and donor solutions were collected, and the fluorescence compounds (Aβ1–40Cy5 peptide and FITC-inulin) were quantified with a spectrofluorimeter (Synergy H1, Biotek, Colmar, France). The radioactivity of ^14C-saccharose was measured using a scintillation counter (Hidex 300 SL, Hidex, Turku, Finland). The apparent permeability coefficients (cm.sec^−1) of Aβ1–40Cy5 peptide and FITC-inulin were calculated as previously described. Once influx and efflux Papp were determined for each molecule, the specific transport of Aβ1–40Cy5 across the BLECs in influx and efflux directions were identified by calculating the transcytosis quotient of Aβ1–40Cy5 using the following formulas: “influx transcytosis quotient of Aβ1–40Cy5 = (influx Aβ1–40Cy5 Papp)/(influx FITC-inulin Papp)” or “efflux transcytosis quotient of Aβ1–40Cy5 = (efflux Aβ1–40Cy5 Papp)/(efflux FITC-inulin Papp)”. For each filter, the mass balance was determined as described in Section 4.4. […]

Substance	VE-cadherin protein level versus control ([1]; normalized to β-actin)	ZO-1 protein level versus control ([1]; normalized to β-actin)	decrease of claudin-3 protein level compared to control ([1]; normalized to β-actin) [%]	decrease of occludin protein level compared to control ([1]; normalized to β-actin) [%]	decrease of tricellulin protein level compared to control ([1]; normalized to β-actin) [%]	increase of Claudin-5 protein expression compared to control ([1]; normalized to β-actin) [%]	P-gp protein expression compared to control [2]	PICALM protein expression compared to control [2]	RAGE protein expression compared to control [2]	downregulation of BCRP protein level compared to control [2] [%]	downregulation of LRP1 protein level compared to control [2] [%]	apical-to-basolateral transcytosis quotient (specific influx) of Aβ1–40Cy5 peptide [3]	reduction of basolateral-to-apical transcytosis quotient (specific efflux) of Aβ1–40Cy5 peptide [3] [%]	Claudin-5 protein levels versus control [1]	decrease of ZO-1 protein expression compared to control ([1]; normalized to β-actin) [%]
tumor necrosis factor-α [TNF-α]	not significantly different	not significantly different	57.3	38.1	50.9	40.2	no significant change	did not affect PICALM protein expression	no significant change	73.4	41.9	not modified	26.9		
interleukin-1β [IL-1β]			73.1	33.5	51.0		no significant change	induced an increase of PICALM protein expression	no significant change	49.0	45.2	not modified	25.9	not reflected by a change in Claudin-5 protein levels	26.4
